Experiments:
RPMI8226 tumors = assay: Subcutaneous RPMI8226 multiple myeloma model in mice; format: in vivo
Procedure: Tissue sections were deparaffinized with xylene, rehydrated and microwaved and then incubated with primary antibodies diluted in 1% (wt/vol) BSA and visualized by standard avidin–biotin–peroxidase complex technique (Vector Laboratories, Burlingame, CA, USA). Counterstaining was performed with Mayer’s haematoxylin. Slides were mounted in Vectashield containing DAPI and images recorded in a Zeiss Axioplan 2 fluorescence microscope. Antibodies: KI67 Dako #M7240 (1:100)(using Rodent Block (Biocare-RBM961) and Envision Plus anti-mouse labeled polymer (Dako K4001); Ub-K48 (Millipore-05-1307) (1:100) (serum free Protein block (Dako-X0909)) and Envision + anti-rabbit labeled polymer (Dako-K4003); CXCR4 (Sigma-C3116) (1:400) (Dako-X0909) and Envision + anti-rabbit labeled polymer (Dako-K4003); cleaved casapse-3 (Cell Signaling-9664) (1:100) (Dako-X0909) and Envision + anti-rabbit labeled polymer (Dako-K4003).
Two different multiple myeloma models were used. Experimental protocols and methods were performed by Accelera (Nerviano, Italy) in accordance with guidelines and with permission from the local ethics committee (Nerviano Medical Sciences (NMS) Ethic Committee). All experimental protocols were approved by the Nerviano Medical Sciences (NMS) Ethic Committee. Study director was Marina Ciomei. SCID female mice were obtained from Charles River, Italy. Body weights at the day of tumor implant were between 19 and 22 grams. Treatment started at day 7 after injection of tumor cells and continued for 10 consequtive days. Mice were monitored daily for mortality and clinical signs. In the KMS-11 model, antitumor efficacy was evaluated in terms of survival increase respect to control. In the RPMI8226 model, the growth of subcutaneous tumors was recorded. For imaging, mice were injected intraperitoneally with 150 mg/kg d-luciferin (Promega) followed by anesthetization in 2–3% isoflurane atmosphere. After 10–12 minutes of biodistribution time, mice were imaged using a charge coupled device (CCD camera, Xenogen IVIS Lumina System) to evaluate the bioluminescence in the animal. Nose-cone isoflurane delivery system and heated stage for maintaining body temperature were used. A gray-scale image of the mice was captured, followed by an overlay of a bioluminescence map representing the spatial distribution of photons detected from cleaved luciferin in the cancer cells expressing luciferase. Signal intensity was quantified using a customized version of the IGOR Pro version 4.09A Software (WaveMetrics, Inc., Lake Oswego, OR) called Living Image version 3.00 (Xenogen). Photon emission was measured as whole-body radiance and the individual regions of interest (ROIs) were manually selected. Data were expressed as photon/second/cm^2/steradian.

UCHL5 = target: T1, UCHL5 (Homo sapiens, UniProt Q9Y5K5); assay: Ub-VS labeling of lysates of exposed OPM-2 cells, UCHL5; format: cell-based; design: endogenous in cells; host or cells: OPM-2 multiple myeloma cells; conditions: 0.5 μM, 3 hours
T1 sequence (Q9Y5K5 1-329): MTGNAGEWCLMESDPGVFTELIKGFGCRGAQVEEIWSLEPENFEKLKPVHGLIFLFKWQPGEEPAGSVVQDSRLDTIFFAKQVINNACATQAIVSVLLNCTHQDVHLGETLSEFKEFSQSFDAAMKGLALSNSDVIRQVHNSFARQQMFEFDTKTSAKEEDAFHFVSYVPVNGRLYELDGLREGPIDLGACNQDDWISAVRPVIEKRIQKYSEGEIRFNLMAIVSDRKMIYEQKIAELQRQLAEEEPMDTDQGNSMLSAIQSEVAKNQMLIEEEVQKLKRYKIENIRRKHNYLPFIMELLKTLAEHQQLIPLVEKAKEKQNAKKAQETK
Procedure: Cell extract proteins were resolved by Tris-Acetate PAGE gels (Invitrogen, Carlsbad, CA) and transferred onto a polyvinylidene difluoride (PVDF) membrane for western blotting. For Ub-VS labeling, we lysed cell pellets from control or treated cells with buffer (50 mM HEPES pH 7.4, 250 mM sucrose, 10 mM MgCl2, 2 mM ATP, 1 mM DTT and 1%NP-40) on ice for 30 min and removed debris by centrifugation. We labeled 25 μg of protein with 1 μM Ub-VS for 30 min at 37 °C. We resolved samples by SDS-PAGE and performed immunoblotting. For HA-Ub-VS labeling, we pretreated purified 19S (5 nM) with DMSO or 2.5, 5, 10, 15 or 25μM 1570 for 10 min at room temperature, which followed with labeling with 1 μM HA-Ub-VS for 30 min at 37 °C and immunoblotting.

USP14 = USP14 (Homo sapiens, UniProt P54578); assay: SPR binding to recombinant USP14, CM7 chip; conditions: protein from Karolinska Institute Protein Science Facility, read-out: USP14(K) KD
Text: A BIACORE T200 was used for characterization of the interaction between compounds and USP14, UCHL5 and 26S proteasome. The standard BIACORE protocols were used for NTA chip (Ni/His-tag immobilization) and CM7 chip for compound interaction studies with slight modification described below. The x6 his-tagged USP14 and UCHL5 proteins were coupled to a Series S NTA BIACORE sensor chip in the BIACORE T200 using the his-tags for adherence of the proteins to the surface and an amine coupling procedure for covalent attachment to the chip surface. NTA chip was cleaned using three 500 μM EDTA injections followed by an injection of 500 μM Ni^2+ and activation of the chip surface with EDC/NHS injection according to BIACORE standard methods. Each chip has four separate areas, which were handled separately during the immobilization procedure. Area 1 was used as blank reference surface, area 2–4 was coupled with investigated recombinant proteins or complexes. Proteins were diluted in running buffer (10 mM HEPES, 150 mM NaCl, 0,005% Tween 20) to typically 10 μg/ml before injection(1 mL) over the prepared surfaces. […] The immobilization procedure was followed by injections of compound concentration series of VLX1570. […] Rmax and KD were calculated using Langmuir binding isotherms as provided in the Biacore software.

USP14, sequence (P54578 whole entry): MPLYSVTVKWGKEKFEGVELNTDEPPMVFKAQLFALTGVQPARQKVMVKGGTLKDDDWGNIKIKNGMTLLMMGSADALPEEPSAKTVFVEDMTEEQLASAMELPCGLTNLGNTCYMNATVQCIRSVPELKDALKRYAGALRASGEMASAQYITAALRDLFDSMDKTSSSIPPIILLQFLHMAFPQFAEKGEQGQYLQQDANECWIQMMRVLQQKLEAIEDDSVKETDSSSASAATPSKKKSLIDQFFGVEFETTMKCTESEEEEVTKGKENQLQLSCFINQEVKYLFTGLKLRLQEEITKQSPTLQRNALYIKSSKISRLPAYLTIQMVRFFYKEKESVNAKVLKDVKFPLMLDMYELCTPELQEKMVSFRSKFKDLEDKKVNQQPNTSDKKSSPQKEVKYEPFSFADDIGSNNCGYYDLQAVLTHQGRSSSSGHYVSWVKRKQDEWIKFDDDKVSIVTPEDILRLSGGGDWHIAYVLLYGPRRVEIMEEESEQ

**Q.** For `C=CC(=O)N1CC/C(=C\c2ccc(F)c([N+](=O)[O-])c2)C(=O)/C(=C/c2ccc(F)c([N+](=O)[O-])c2)C1` [VLX1570], which tumor growth (RPMI8226 tumors; 3 mg/kg, 10 consecutive days, subcutaneous RPMI8226) is on record?
**A.** The tumor growth was “significant decrease in tumor growth”.

**Q.** And the “CXCR4 staining in tumors (immunohistochemistry)” value (RPMI8226 tumors; RPMI8226 tumors, 3 mg/kg)?
**A.** Its value is “decreased CXCR4 staining”.

**Q.** And the “K48-linked ubiquitin chains in tumors” value (RPMI8226 tumors; RPMI8226 tumors, 3 mg/kg)?
**A.** The value was “increases in K48-linked ubiquitin chains”.

**Q.** And the “active caspase-3 in tumors” value (RPMI8226 tumors; RPMI8226 tumors, 3 mg/kg)?
**A.** Its value is “increased active caspase-3”.

**Q.** What about the “ERK phosphorylation in RPMI8226 cells in vivo” value (RPMI8226 tumors; after exposure of mice) of the same compound?
**A.** The value was “decreased ERK phosphorylation”.

**Q.** What about the “UCHL5 inhibition in exposed cells” value (UCHL5) of the same compound?
**A.** The value was “weak in comparison”.

**Q.** And the Kd (USP14)?
**A.** Its Kd is 35 µM.
